Assay results as given in patent US12060388B2, “Cell-penetrating peptides and methods of use thereof” (priority 2018, dated 2024).

Key:
Type in all cases: cell-based
[1] = test system: EEA1 / HPV16 L1; assay: Proximity ligation assay for L1 and EEA1 in peptide-treated infected cells; details: 14 μM
Experimental: (§1) HeLa-S3 cells grown on glass coverslips for 16 hours were incubated for one hour with or without 14 μM P16/16, followed by mock-infection or infection with HPV16 PSV at MOI of 200. 8 and 16 h.p.i., cells were processed for PLA with anti-L1 antibody and an antibody recognizing EEA1 (FIG. 20A) or TGN46 (FIG. 20B). PLA was performed as in FIG. 19B. The PLA signal for EEA1/L1 was normalized to that of cells infected with HPV16 PsV in the absence of peptide at 8 h.p.i., while the TGN46/L1 signal was normalized to untreated cells at 16 h.p.i.
(§2) For the proximity ligation assay, after an hour incubation with peptides, HeLa-S3 cells were infected with wild-type PSV at MOI of 200 or mutant PsV containing the same number of reporter plasmid genomes. Infected cells were fixed at 8 or 16 h.p.i., permeabilized, and incubated with 1:100 dilutions of anti-L1 antibody and an antibody recognizing EEA1, TGN46, or VPS35. […] The nuclei were stained by using Abcam fluorescence mounting medium with DAPI and images were acquired by a Leica SP5 inverted fluorescence microscope. […] The images were processed by Fiji and quantitatively analyzed by BlobFinder software to measure total fluorescence intensity in each sample. The average fluorescence intensity per cell in each sample was normalized to the control sample as indicated in each experiment. […]

[2] = test system: HPV16 pseudovirus (PsV); assay: Peptide inhibition of HPV16 PsV infection of HeLa-S3 cells, flow cytometry for HcRed
Description: FIG. 18A (top) depicts sequences of L2 peptides. […] Amino acid substitutions in the CPP or RBS mutant peptides are shown in orange and blue, respectively. Bottom: RBS and flanking sequences of indicated HPV L2 proteins or DMT1-II. FIG. 18B depicts an inhibitory dose-response curve for P16/16 peptide. 5×10^4 HeLa-S3 in 24-well plates were pretreated with various concentrations of P16/16 for one hour prior to infection with HPV pseudovirus (PsV) at multiplicity of infection (MOI) of 1. Peptide was left in the medium for the duration of the experiment. Cells were assessed by flow cytometry to determine the fraction of cells expressing reporter protein HcRed at 48 hours post-infection (h.p.i.). […] FIG. 18C depicts 5×10^4 HeLa-S3 in 24-well plates were pretreated with 14 μM of the indicated peptide for one hour, followed by infection with HPV PSV at MOI of one. Peptides were left in the medium for the duration of the experiment. As a control, cells were incubated with the solution used to dissolve peptide. Forty-eight h.p.i., cells were assessed by flow cytometry to determine fraction of cells expressing reporter protein HcRed. […] For the comparison of P16/16 to P16/6A, P16/3R, and PDM/16 for HPV16 PsV, **, p<0.01; ***, p<0.001. […] FIG. 18D depicts inhibition of HPV infection of HaCaT cells. HaCaT keratinocytes were infected at MOI of 1 with HPV16 PsV in the presence and absence of 14 μM P16/16, and infectivity was assessed 48 h.p.i. by flow cytometry for HcRed fluorescence. FIG. 18E depicts inhibition of authentic HPV16. HeLa cells were infected with HPV16 harvested from organotypic cultures of human keratinocytes or with HPV16 PsV in the presence (grey bars) or absence (black bars) of P16/16. Successful infection by HPV16 and HPV16 PsV was assessed by quantitative reverse transcription-PCR (qRT-PCR) for expression of HPV early region and HcRed mRNA, respectively, and normalized to infection by the cognate virus in the absence of peptide. Background signal determined with non-cognate primers was <0.01%.
To assess the effect of peptides on viral infection, 5×104 HeLa-S3 in 24-well plates were pretreated with peptides for one hour, followed by infection with wild-type HPV PsV at 37° C. at MOI of ˜1 or with mutant PsV containing an equivalent number of encapsidated reporter plasmids. Peptides were left in the medium for the duration of the experiment unless otherwise indicated. As a control, cells were incubated with the solution used to dissolve peptide. Cells were assessed by flow cytometry on a Stratedigm-13 flow cytometer to determine reporter protein expression at 48 h.p.i. unless otherwise indicated. In some experiments, peptides were added at various times after infection and were left in the medium for the duration of the experiment.

[3] = test system: HPV16 PsV; assay: Inhibition of HPV16 PsV infection of HaCaT keratinocytes; details: 14 μM, MOI of 1, 48 h.p.i.
Description: (§3) FIG. 18A (top) depicts sequences of L2 peptides. […] Amino acid substitutions in the CPP or RBS mutant peptides are shown in orange and blue, respectively. Bottom: RBS and flanking sequences of indicated HPV L2 proteins or DMT1-II. FIG. 18B depicts an inhibitory dose-response curve for P16/16 peptide. 5×10^4 HeLa-S3 in 24-well plates were pretreated with various concentrations of P16/16 for one hour prior to infection with HPV pseudovirus (PsV) at multiplicity of infection (MOI) of 1. Peptide was left in the medium for the duration of the experiment. Cells were assessed by flow cytometry to determine the fraction of cells expressing reporter protein HcRed at 48 hours post-infection (h.p.i.). […] Forty-eight h.p.i., cells were assessed by flow cytometry to determine fraction of cells expressing reporter protein HcRed. […] HaCaT keratinocytes were infected at MOI of 1 with HPV16 PsV in the presence and absence of 14 μM P16/16, and infectivity was assessed 48 h.p.i. by flow cytometry for HcRed fluorescence. […] Successful infection by HPV16 and HPV16 PsV was assessed by quantitative reverse transcription-PCR (qRT-PCR) for expression of HPV early region and HcRed mRNA, respectively, and normalized to infection by the cognate virus in the absence of peptide. Background signal determined with non-cognate primers was <0.01%.

[4] = test system: HPV18 PsV; assay: Peptide inhibition of HPV18 PsV infection of HeLa-S3 cells, flow cytometry for HcRed; details: 14 μM peptide, MOI of one, 48 h.p.i.
Description: as §3, with “<0.01%. […]” for “<0.01%.”

[5] = test system: HPV16 PsV; assay: HPV16 PsV internalization in peptide-treated HeLa-S3 cells, anti-L1 immunofluorescence; details: 14 μM, MOI of 50, 8 or 16 h at 37° C.
Experimental: HeLa-S3 cells were incubated with 14 μM P16/16 or vehicle for one hour, followed by infection with HPV16 PsV at MOI of 50 at 4° C. for 2 h. Cells were washed with PBS to remove loosely-bound PsV and then shifted to 37° C. to allow virus internalization. After 8 or 16 h at 37° C., samples were fixed with 4% paraformaldehyde, permeabilized with 1% saponin, and stained with anti-L1 antibody. Cells were also stained with DAPI to visualize nuclei and examined by a Leica SP5 confocal microscope.
For the internalization experiments, 5×10^4 HeLa-S3 cells were grown on glass coverslips for 16 hours. After one-hour incubation with or without peptides, PsV at MOI of 50 were added and incubated at 4° C. for 2 hours, washed with PBS three times to remove loosely bound PsV, and shifted to 37° C.to initiate infection. As a control, cells were incubated with the solution used to dissolve peptides alone. At the indicated times post-infection, samples were fixed, permeabilized and stained with anti-L1 and AlexaFluor 488 conjugated secondary antibody. Cells were analyzed by a Leica SP5 confocal microscope.

[6] = test system: TGN46 / HPV16 L1; assay: Proximity ligation assay for L1 and TGN46 in peptide-treated infected cells; details: 14 μM, MOI of 200, 16 h.p.i.
Experimental: as §1, §2

SMILES: CC[C@H](C)[C@H](NC(=O)[C@@H](NC(=O)[C@H](Cc1ccc(O)cc1)NC(=O)[C@H](CCC(N)=O)NC(=O)[C@@H]1CCCN1C(=O)[C@H](CO)NC(=O)[C@@H](N)CS)[C@@H](C)O)C(=O)N[C@H](C(=O)N[C@@H](C)C(=O)N[C@@H](CC(=O)O)C(=O)N[C@@H](C)C(=O)NCC(=O)N[C@@H](CC(=O)O)C(=O)N[C@@H](Cc1ccccc1)C(=O)N[C@@H](Cc1ccc(O)cc1)C(=O)N[C@@H](CC(C)C)C(=O)N[C@@H](Cc1c[nH]cn1)C(=O)N1CCC[C@H]1C(=O)N[C@@H](CO)C(=O)N[C@@H](Cc1ccc(O)cc1)C(=O)N[C@@H](Cc1ccc(O)cc1)C(=O)N[C@@H](CCSC)C(=O)N[C@@H](CC(C)C)C(=O)N[C@@H](CCCNC(=N)N)C(=O)N[C@@H](CCCCN)C(=O)N[C@@H](CCCNC(=N)N)C(=O)N[C@@H](CCCNC(=N)N)C(=O)N[C@@H](CCCCN)C(=O)N[C@@H](CCCNC(=N)N)C(=O)O)[C@@H](C)CC [P16/16]
- EEA1/L1 PLA at 8 h.p.i. ([1]; MOI of 200, 8 h.p.i.): arrival of HPV at the endosome regardless of the presence of the peptide
- EEA1/L1 PLA at 16 h.p.i. ([1]; MOI of 200, 16 h.p.i.): striking accumulation of the virus in the endosome
- time of peptide addition for effective inhibition ([2]; 14 μM peptide added at time of infection or at indicated h.p.i.): needed to be added during the first few hours of infection
- persistence of inhibition ([2]; 14 μM peptide left in medium, 48, 72, or 96 h.p.i.): at least 96 h.p.i.
- inhibition of HPV16 PsV infection ([2]; 14 μM peptide, MOI of 1, 48 h.p.i.): statistically significant (p<0.01) inhibition
- infection after removal of peptide ([2]; peptide removed from the medium after 24 hours): infection was not restored over the next three days
- reduction in infection, dose-response ([2]; various concentrations of peptide, MOI of 1, 48 h.p.i.): dose-dependent reduction in infection
- inhibition of HPV16 PsV infection in HaCaT [3]: inhibited infection
- inhibition of HPV18 PsV infection [4]: potently inhibited infection
- virus internalization [5]: did not inhibit virus internalization
- TGN46/L1 PLA at 16 h.p.i. [6]: inhibited the arrival of HPV in the TGN
